According to the supplement of paper PMC10307832:

Assays:
Test in all cases: relative viability (nuclei count vs DMSO), 5 days (fraction); higher = more cells survive
[1] = compound: C1COCCN1C2=NC(=NC3=C2OC4=C3C=CC=N4)C5=CC(=CC=C5)NC(=O)C6=CN=C(C=C6)N + CC1(C)CCC(c2ccc(Cl)cc2)=C(CN2CCN(c3ccc(C(=O)NS(=O)(=O)c4ccc(N[C@H](CCN5CCOCC5)CSc5ccccc5)c(S(=O)(=O)C(F)(F)F)c4)cc3)CC2)C1 [Navitoclax] (partner 0.5 µM)
Summary of the method: (§1)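 Five library-drug doses in √10 steps were combined with a fixed anchor-drug dose, or a single drug was given alone, by pin tool to lung cancer cell lines in 1536-well plates the day after seeding. Nuclei were stained and counted after 5 days. Relative viability is the nuclei count in treated wells over that in vehicle wells, taken as the median of duplicate plates.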

[2] = compound: CN1CCC(CNc2ccc3ncc(-c4cccc(OC(F)(F)F)c4)n3n2)CC1 [SGI-1776] + N=C(N)NC(=N)NCCc1ccccc1 [Phenformin] (partner 250 µM)
Summary of the method: as §1

[3] = compound: CN1CCC(CNc2ccc3ncc(-c4cccc(OC(F)(F)F)c4)n3n2)CC1 [SGI-1776] + CC(C)C[C@H](NC(=O)[C@H](Cc1ccccc1)NC(=O)c1cnccn1)B(O)O [Bortezomib] (partner 0.002 µM)
Summary of the method: as §1

[4] = compound: Nc1ccccc1NC(=O)c1ccc(CNC(=O)OCc2cccnc2)cc1 [Entinostat] + Cc1cc(Nc2cc(N3CCN(C)CC3)nc(Sc3ccc(NC(=O)C4CC4)cc3)n2)n[nH]1 [Tozasertib] (partner 0.1 µM)
Summary of the method: as §1

UMC-11
relative viability ([1]; first compound 0.02 µM): 0.278
relative viability ([1]; first compound 0.06325 µM): 0.292
relative viability ([1]; first compound 0.2 µM): 0.266
relative viability ([1]; first compound 0.6325 µM): 0.284
relative viability ([1]; first compound 2 µM): 0.246
relative viability ([2]; first compound 0.08 µM): 0.31
relative viability ([2]; first compound 0.8 µM): 0.322
relative viability ([2]; first compound 2.53 µM): 0.302
relative viability ([2]; first compound 8 µM): 0.252
relative viability ([3]; first compound 0.08 µM): 0.741
relative viability ([3]; first compound 0.8 µM): 0.809
relative viability ([3]; first compound 2.53 µM): 0.647
relative viability ([3]; first compound 8 µM): 0.688
relative viability ([4]; first compound 0.02 µM): 0.218
relative viability ([4]; first compound 0.06325 µM): 0.201
relative viability ([4]; first compound 0.2 µM): 0.206
relative viability ([4]; first compound 0.6325 µM): 0.192
relative viability ([4]; first compound 2 µM): 0.163
